Experiments:
Assay type in all cases: in vivo
[1] = Urine excretion in rats with increased urine excretion provoked by intraperitoneal saline (Lipschitz model); conditions: rats fasted overnight, 100 ml/kg physiological saline i.p., urine collected over 6 hours, dose 100 mg/kg; increase as a function of dose
Protocol: (§1) A model for measuring the effect on urine excretion is described in Lipschitz et al., J. Pharmacol. Exp. Ther. 1943; 79: 97-110. The substance to be investigated is given to rats who had previously been denied food overnight while being given free access to water. Increased urine excretion is provoked by simultaneous intraperitoneal injection of 100 ml/kg of physiological saline solution. Immediately after administration of the substance, the bladder was emptied by gentle massage of the abdomen above the bladder. The rats are subsequently kept in metabolism cages in which the urine is collected over a period of 6 hours.

[2] = Urine excretion in normal rats (without induction of increased urine excretion); conditions: no saline induction, dose 30 mg/kg po, increase as a function of dose
Protocol: as §1
The effect on urine excretion in normal rats is tested analogously (i.e. without induction of increased urine excretion, see above). N-Methyl-N-[(1S)-1-phenyl-2-((3S)-3-hydroxypyrrolidin-1-yl)ethyl]-2,2-diphenylacetamide increases urine excretion as a function of dose, with 5.5 times the amount of urine being excreted at only 30 mg/kg po.

[3] = system: irritable bladder in female apes; assay: Animal model for irritable bladder induced by direct infusion of acetone into the bladder (Ghoniem et al.); conditions: doses of 3, 10 and 30 mg/kg
Protocol: The classical animal model for irritable bladder is described in Ghoniem et al., Neurourol. Urodyn. 1995; 14: 657-65. In female apes, irritable bladder is induced by direct infusion of acetone into the bladder. The animals are kept in metabolism cages designed for continuous monitoring of miction (urination) of the animals. The frequency, emptying volumes and flow rate of the urine are measured continuously via urine flow meters. […] Furthermore, considerable changes in bladder physiology are observed in the first week after acetone infusion: the bladder performance, measured in ml/cm, drops by almost 95%. The emptying behaviour also changes considerably, with the frequency of emptying increasing greatly with the picture of frequent dribbling and at the same time with an emptying volume reduced by about 70%. […] These changes in behaviour observed in apes are consistent with the clinical picture of considerable discomfort and pain.

SMILES: CN(C(=O)C(c1ccccc1)c1ccccc1)[C@H](CN1CC[C@H](O)C1)c1ccccc1 [N-methyl-N-[(1S)-1-phenyl-2-((3S)-3-hydroxypyrrolidin-1-yl)ethyl]-2,2-diphenylacetamide]
- amount of urine excreted (multiple) [1]: twice the amount of urine
- amount of urine excreted (multiple) [2]: 5.5 times
- effect on bladder function [3]: normalises bladder function in a dose-dependent manner

Reference: patent publication US20040157913A1, “Kappa opiate agonists for the treatment of bladder diseases” (priority 2001, published 2004)
